Experimental data published in patent US11998539B2, “Substituted aminoquinolones as DGKalpha inhibitors for immune activation” (Bayer Aktiengesellschaft, priority 2019, dated 2024).

Target: DGKα (Homo sapiens (Human), UniProt P23743)
Experiment: Human DGKα kinase activity inhibition assay (ADP-Glo)
Type: biochemical
Settings: recombinant full-length human DGKα, 55 μM ATP, 7 μM 1,2-dioleoyl-sn-glycerol, read-out: IC50 values of examples in in vitro human DGKa kinase activity inhibition assays
Protocol: Human DGKα Kinase Activity Inhibition Assay
Human DGKα inhibitory activity of compounds of the present invention was quantified employing the human DGKα kinase activity assay as described in the following paragraphs. In essence, the enzyme activity was measured by quantification of the adenosine-di-phosphate (ADP) generated as a co-product of the enzyme reaction via the “ADP-Glo™ Kinase Assay” kit from the company Promega. This detection system works as follows: In a first step the ATP not consumed in the kinase reaction is quantitatively converted to cAMP employing an adenylate cyclase (“ADP-Glo-reagent”), then the adenylate cyclase is stopped and the ADP generated in the kinase reaction converted to ATP, which subsequently generates in a luciferase-based reaction a glow-luminescence signal (“Kinase Detection Reagent”).
C-terminally FLAG-tagged, recombinant full-length human DGKα (expressed in baculovirus infected insect cells, purified using anti-Flag pulldown and size exclusion chromatography as described below, DGKa_hu_1) was used as enzyme. As substrate for the kinase 1,2-dioleoyl-sn-glycerol, reconstituted in octyl-β-D-glucopyranoside micelles, was used. […] Then 35 volumes of 50 mM MOPS buffer (pH 7.4) were added to yield a solution of 0.28 mM 1,2 dioleoyl-sn-glycerol and 200 mM […], which was aliquoted, flash-frozen in liquid nitrogen, and stored at −20° C. until use.
For the assay 50 nl of a 100-fold concentrated solution of the test compound in dimethyl sulfoxide (DMSO, Sigma) was pipetted into either a white 1536-well or a white low-volume 384-well microtiter plate (both Greiner Bio-One, Frickenhausen, Germany).

Chain of DGKα (P23743 other isoform, or with tags, fused parts or gaps): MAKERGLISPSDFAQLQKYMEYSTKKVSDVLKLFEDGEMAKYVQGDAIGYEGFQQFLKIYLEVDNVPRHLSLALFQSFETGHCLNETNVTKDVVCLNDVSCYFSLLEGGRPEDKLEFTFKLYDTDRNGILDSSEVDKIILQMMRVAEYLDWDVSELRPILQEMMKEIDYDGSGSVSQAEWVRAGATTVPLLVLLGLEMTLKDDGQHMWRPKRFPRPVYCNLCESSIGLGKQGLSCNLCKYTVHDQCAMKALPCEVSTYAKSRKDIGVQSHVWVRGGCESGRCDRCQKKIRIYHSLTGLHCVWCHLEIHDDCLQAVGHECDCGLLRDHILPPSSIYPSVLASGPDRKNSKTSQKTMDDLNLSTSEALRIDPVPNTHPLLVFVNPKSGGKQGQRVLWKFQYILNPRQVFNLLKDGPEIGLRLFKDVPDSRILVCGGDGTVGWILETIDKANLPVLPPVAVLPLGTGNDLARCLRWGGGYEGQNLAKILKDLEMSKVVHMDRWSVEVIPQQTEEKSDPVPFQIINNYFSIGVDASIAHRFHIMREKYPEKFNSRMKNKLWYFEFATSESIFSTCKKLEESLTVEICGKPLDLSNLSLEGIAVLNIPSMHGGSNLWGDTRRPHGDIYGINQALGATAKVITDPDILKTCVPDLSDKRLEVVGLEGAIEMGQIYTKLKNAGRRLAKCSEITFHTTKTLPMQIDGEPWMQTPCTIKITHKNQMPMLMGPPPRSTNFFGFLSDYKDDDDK

Cc1ccc2oc(C3CCN(c4c(C#N)c(=O)n(C)c5cc(OCC(=O)O)ccc45)CC3)nc2c1 [Example 416, ({3-cyano-1-methyl-4-[4-(5-methyl-1,3-benzoxazol-2-yl)piperidin-1-yl]-2-oxo-1,2-dihydroquinolin-7-yl}oxy)acetic acid]
IC50: 34 nM

COc1ccc2c(N3CCC(c4nc5cc(F)c(F)cc5o4)CC3)c(C#N)c(=O)n(C)c2c1 [Example 254, 4-[4-(5,6-difluoro-1,3-benzoxazol-2-yl)piperidin-1-yl]-7-methoxy-1-methyl-2-oxo-1,2-dihydroquinoline-3-carbonitrile]
IC50: 15 nM

Cc1ccc2oc(C3CCN(c4c(C#N)c(=O)n(C)c5ccc(C(N)=O)cc45)CC3)nc2c1 [Example 404, 3-cyano-1-methyl-4-[4-(5-methyl-1,3-benzoxazol-2-yl)piperidin-1-yl]-2-oxo-1,2-dihydroquinoline-6-carboxamide]
IC50: 5.3 nM

Cn1c(=O)c(C#N)c(N2CCC(c3cccc(C#N)c3)CC2)c2ccccc21 [Example 327, 4-[4-(3-cyanophenyl)piperidin-1-yl]-1-methyl-2-oxo-1,2-dihydroquinoline-3-carbonitrile]
IC50: 85 nM

Cn1ccc2c(F)cc(C3CCN(c4c(C(N)=O)c(=O)n(C)c5ccccc45)CC3)cc21 [Example 471, 4-[4-(4-fluoro-1-methyl-1H-indol-6-yl)piperidin-1-yl]-1-methyl-2-oxo-1,2-dihydroquinoline-3-carboxamide]
IC50: 3.9 nM

CC(C)Oc1ccc(C2CCN(c3c(C(N)=O)c(=O)n(C)c4ccccc34)CC2)cc1 [Example 102, 1-methyl-2-oxo-4-(4-{4-[(propan-2-yl)oxy]phenyl}piperidin-1-yl)-1,2-dihydroquinoline-3-carboxamide]
IC50: 0.3 nM

Cc1ccccc1-c1noc(C2CCN(c3c(C#N)c(=O)n(C)c4cc(O)c(Br)cc34)CC2)n1 [Example 531, 6-bromo-7-hydroxy-1-methyl-4-{4-[3-(2-methylphenyl)-1,2,4-oxadiazol-5-yl]piperidin-1-yl}-2-oxo-1,2-dihydroquinoline-3-carbonitrile]
IC50: 8.1 nM

COc1ccc2c(N3CCC(c4ccccc4)CC3)c(C#N)c(=O)n(C)c2c1 [Example 256, 7-methoxy-1-methyl-2-oxo-4-(4-phenylpiperidin-1-yl)-1,2-dihydroquinoline-3-carbonitrile]
IC50: 25 nM

Cc1ccc2oc(C3CCN(c4c(C#N)c(=O)n(C)c5ccccc45)CC3C)nc2c1 (mixture of isomers) [Example 111, 1-methyl-4-[3-methyl-4-(5-methyl-1,3-benzoxazol-2-yl)piperidin-1-yl]-2-oxo-1,2-dihydroquinoline-3-carbonitrile, mixture of stereoisomers]
IC50: 3.2 nM

COc1ccc2c(c1)c(N1CCC(c3nc(-c4ccccc4C)no3)CC1)c(C(N)=O)c(=O)n2C [Example 522, 6-methoxy-1-methyl-4-{4-[3-(2-methylphenyl)-1,2,4-oxadiazol-5-yl]piperidin-1-yl}-2-oxo-1,2-dihydroquinoline-3-carboxamide]
IC50: 44 nM

Cn1c(=O)c(C#N)c(N2CCC(C)(c3nc4ccccc4o3)CC2)c2cccc(Cl)c21 [Example 230, 4-[4-(1,3-benzoxazol-2-yl)-4-methylpiperidin-1-yl]-8-chloro-1-methyl-2-oxo-1,2-dihydroquinoline-3-carbonitrile]
IC50: 83 nM

Cn1c(=O)c(C#N)c(N2CCC(c3nc4cc(N5CCCC5=O)ccc4o3)CC2)c2ccccc21 [Example 334, 1-methyl-2-oxo-4-{4-[5-(2-oxopyrrolidin-1-yl)-1,3-benzoxazol-2-yl]piperidin-1-yl}-1,2-dihydroquinoline-3-carbonitrile]
IC50: 100 nM

Cc1ccc2oc(C3CCN(c4c(C#N)c(=O)n(C)c5ccc(C6CCC6(C)C)cc45)CC3)nc2c1 (stereo not drawn) [Example 410, 6-[2,2-dimethylcyclobutyl]-1-methyl-4-[4-(5-methyl-1,3-benzoxazol-2-yl)piperidin-1-yl]-2-oxo-1,2-dihydroquinoline-3-carbonitrile]
IC50: 51 nM

Cn1c(=O)c(C#N)c(N2CCC(c3nc4cc(OCC5CCCO5)ccc4o3)CC2)c2ccccc21 (stereo not drawn) [Example 387, 1-methyl-2-oxo-4-(4-{5-[(oxolan-2-yl)methoxy]-1,3-benzoxazol-2-yl}piperidin-1-yl)-1,2-dihydroquinoline-3-carbonitrile]
IC50: 8.9 nM

Cc1ccc2oc(C3CCN(c4c(C#N)c(=O)n(C)c5ccc(P(C)(C)=O)cc45)CC3)nc2c1 [Example 338, 6-(dimethylphosphoryl)-1-methyl-4-[4-(5-methyl-1,3-benzoxazol-2-yl)piperidin-1-yl]-2-oxo-1,2-dihydroquinoline-3-carbonitrile]
IC50: 86 nM

Cn1c(=O)c(C(N)=O)c(N2CCC(c3nc4ccccc4o3)CC2)c2ccc(Br)cc21 [Example 104, 4-[4-(1,3-benzoxazol-2-yl)piperidin-1-yl]-7-bromo-1-methyl-2-oxo-1,2-dihydroquinoline-3-carboxamide]
IC50: 0.6 nM

Cc1ccc2oc(C3CCN(c4c(C#N)c(=O)n(C)c5cc([N+](=O)[O-])c(C)cc45)CC3)nc2c1 [Example 421, 1,6-dimethyl-4-[4-(5-methyl-1,3-benzoxazol-2-yl)piperidin-1-yl]-7-nitro-2-oxo-1,2-dihydroquinoline-3-carbonitrile]
IC50: 137 nM

Cc1ccccc1-c1nnc(C2CCN(c3c(C#N)c(=O)n(C)c4cc(O)ccc34)CC2)o1 [Example 444, 7-hydroxy-1-methyl-4-{4-[5-(2-methylphenyl)-1,3,4-oxadiazol-2-yl]piperidin-1-yl}-2-oxo-1,2-dihydroquinoline-3-carbonitrile]
IC50: 82 nM

Cn1c(=O)c(C#N)c(N2CCC(c3ccc(C(N)=O)cc3)CC2)c2ccccc21 [Example 330, 4-[1-(3-cyano-1-methyl-2-oxo-1,2-dihydroquinolin-4-yl)piperidin-4-yl]benzamide]
IC50: 217 nM

Cn1c(=O)c(C(N)=O)c(N2CCC(c3nc4ccccc4s3)CC2)c2ccccc21 [Example 113, 4-[4-(1,3-benzothiazol-2-yl)piperidin-1-yl]-1-methyl-2-oxo-1,2-dihydroquinoline-3-carboxamide]
IC50: 3.5 nM

COCCNc1cc2c(cc1C)c(N1CCC(c3nc4cc(C)ccc4o3)CC1)c(C(N)=O)c(=O)n2C [Example 552, 7-[(2-methoxyethyl)amino]-1,6-dimethyl-4-[4-(5-methyl-1,3-benzoxazol-2-yl)piperidin-1-yl]-2-oxo-1,2-dihydroquinoline-3-carboxamide]
IC50: 1.6 nM

Cn1c(=O)c(C#N)c(N2CCC(F)(c3nc4ccccc4o3)CC2)c2ccccc21 [Example 389, 4-[4-(1,3-benzoxazol-2-yl)-4-fluoropiperidin-1-yl]-1-methyl-2-oxo-1,2-dihydroquinoline-3-carbonitrile]
IC50: 3.1 nM

Cn1c(=O)c(C(N)=O)c(N2CCC(c3nc4ccccc4o3)CC2)c2ccc(C(F)(F)F)cc21 [Example 308, 4-[4-(1,3-benzoxazol-2-yl)piperidin-1-yl]-1-methyl-2-oxo-7-(trifluoromethyl)-1,2-dihydroquinoline-3-carboxamide]
IC50: 6.4 nM

Cc1ccc2oc(C3CCN(c4c(C#N)c(=O)n(C)c5cc(O[C@@H]6CCOC6)c(Br)cc45)CC3)nc2c1 [Example 537, (−)-6-bromo-1-methyl-4-[4-(5-methyl-1,3-benzoxazol-2-yl)piperidin-1-yl]-2-oxo-7-{[(3R)-oxolan-3-yl]oxy}-1,2-dihydroquinoline-3-carbonitrile]
IC50: 0.2 nM
